The assay deals with T1, human leukocyte elastase (Homo sapiens, UniProt P08246).
T1 sequence (P08246 30-267): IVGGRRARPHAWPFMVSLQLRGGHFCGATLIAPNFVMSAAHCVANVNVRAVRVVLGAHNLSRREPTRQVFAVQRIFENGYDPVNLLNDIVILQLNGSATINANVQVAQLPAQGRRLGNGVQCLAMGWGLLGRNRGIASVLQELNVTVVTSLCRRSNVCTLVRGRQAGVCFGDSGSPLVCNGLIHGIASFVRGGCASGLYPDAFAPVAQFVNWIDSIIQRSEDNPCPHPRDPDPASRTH
In words: Elastase inhibition activity (fluorogenic substrate N-methoxy succinyl-L-alanyl-L-alanyl-L-prolyl-L-valine 4-methylcoumaryl-7-amide). It is filed as biochemical. Conditions: 0.2M tris buffer pH8.5, 1M sodium chloride, 40µM substrate, 37° C, 20 minutes incubation; read-out: IC₅₀. The procedure: The inhibition activities to human leukocyte elastase were determined as follows: Each 1µl of DMSO solution of the compound and DMSO (for reference) were added to each 250µl of 0.2M tris buffer solutions (pH8.5) containing 40µM N-methoxy succinyl-L-alanyl-L-alanyl-L-prolyl-L-valine 4-methylcoumaryl-7-amide and 1M sodium chloride, and the mixtures were pre-incubated at 37° C for three minutes. Then 50µl of 0.2M tris buffer solutions (pH8.5) containing 0.2µg/ml human leukocyte elastase were added to the mixtures and the mixtures were incubated at 37° C for 20 minutes. Each 1ml of 2M acetic acid aqueous solutions were added to the mixture and the reactions were stopped and then fluorescences of the supernatants were measured and the activities were calculated. As the results, IC₅₀ values were as follows: the compound 6 = 0.78µM, the compound 4 = 6.32µM, the compound 1 = 8.48µM and the compound 5 = 9.94µM.

Consider `CCC[C@H](NC(=O)[C@@H]1CCCN1C(=O)[C@H](CC(C)C)NC(=O)OCc1ccccc1)C(=O)C(=O)Cc1ccccc1` [Compound 6, (4S)-4-(N-benzyloxycarbonyl-L-leucyl-L-prolyl)amino-1-phenyl-2,3-heptanedione], for which the IC50 stood at 0.78 µM.

`CCC[C@H](NC(=O)[C@@H]1CCCN1C(=O)[C@H](CC(C)C)NC(=O)OCc1ccccc1)C(=O)C(=O)CC1CCCCC1` [Compound 4, (4S)-4-(N-benzyloxycarbonyl-L-leucyl-L-prolyl)amino-1-cyclohexyl-2,3-heptanedione]: the IC50 was 6.32 µM.

As for `CCC[C@H](NC(=O)[C@@H]1CCCN1C(=O)[C@H](CC(C)C)NC(C)=O)C(=O)C(=O)Cc1ccccc1` [Compound 1, (4S)-4-(N-acetyl-L-leucyl-L-prolyl)amino-1-phenyl-2,3-heptanedione], the IC50 is 8.48 µM.

On to `CCC[C@H](NC(=O)[C@@H]1CCCN1C(=O)[C@H](CC(C)C)NC(=O)OCc1ccccc1)C(=O)C(=O)CCC1CCCCC1` [Compound 5, (5S)-5-(N-benzyloxycarbonyl-L-leucyl-L-prolyl)amino-1-cyclohexyl-3,4-octanedione], for which the IC50 was 9.94 µM.

Source of the values: patent EP0639585A1, “Elastase inhibitor” (BANYU PHARMACEUTICAL CO., LTD., priority 1993, dated 1995).
